According to ChEMBL document CHEMBL3992551, “Synthesis and evaluation of N-(benzofuran-5-yl)aromaticsulfonamide derivatives as novel HIF-1 inhibitors that possess anti-angiogenic potential” (Bioorg Med Chem, 2017):

The molecules below were run on MCF7 (assay: Cytotoxicity against human MCF7 cells harboring HRE-driven luciferase gene). Details: not given.
Type: cell-based

SMILES | Activity
CCOC(=O)c1oc2ccc(NS(=O)(=O)c3ccccc3[N+](=O)[O-])cc2c1C | Non-Toxic
CCOC(=O)c1oc2ccc(NS(=O)(=O)c3cccc(C)c3)cc2c1C | Non-Toxic
CCOC(=O)c1oc2ccc(NS(=O)(=O)c3ccccc3Cl)cc2c1C | Non-Toxic
CCOC(=O)c1oc2ccc(NS(=O)(=O)c3ccc4ccccc4c3)cc2c1C | Non-Toxic
CCOC(=O)c1oc2ccc(NS(=O)(=O)c3ccc(C(C)(C)C)cc3)cc2c1C | Non-Toxic
CCOC(=O)c1oc2ccc(NS(=O)(=O)c3ccccc3C(F)(F)F)cc2c1C | Non-Toxic
CCOC(=O)c1oc2ccc(NS(=O)(=O)c3cccc(Cl)c3)cc2c1C | Non-Toxic
CCOC(=O)c1oc2ccc(NS(=O)(=O)c3ccccc3C)cc2c1C | Non-Toxic
CCOC(=O)c1oc2ccc(NS(=O)(=O)c3cccc(Br)c3)cc2c1C | Non-Toxic
CCOC(=O)c1oc2ccc(NS(=O)(=O)c3ccc(Br)cc3)cc2c1C | Non-Toxic
CCOC(=O)c1oc2ccc(NS(=O)(=O)c3cccc(C(F)(F)F)c3)cc2c1C | Non-Toxic

The molecules below were run on MDA-MB-231 (assay: Antiproliferative activity against human MDA-MB-231 cells after 72 hrs under hypoxic condition by MTT assay). Details: MDA-MB-231, 72 h.
Type: functional, cell-based

SMILES | IC50 [µM]
CCOC(=O)c1oc2ccc(NS(=O)(=O)c3ccccc3[N+](=O)[O-])cc2c1C | 80.4
CCOC(=O)c1oc2ccc(NS(=O)(=O)c3cccc(C)c3)cc2c1C | 29.5
CCOC(=O)c1oc2ccc(NS(=O)(=O)c3ccccc3Cl)cc2c1C | > 200
CCOC(=O)c1oc2ccc(NS(=O)(=O)c3ccc4ccccc4c3)cc2c1C | 21.6
CCOC(=O)c1oc2ccc(NS(=O)(=O)c3ccc(C(C)(C)C)cc3)cc2c1C | 22.4
CCOC(=O)c1oc2ccc(NS(=O)(=O)c3ccccc3C(F)(F)F)cc2c1C | 82.4
CCOC(=O)c1oc2ccc(NS(=O)(=O)c3cccc(Cl)c3)cc2c1C | 57.3
CCOC(=O)c1oc2ccc(NS(=O)(=O)c3ccccc3C)cc2c1C | 89.2
CCOC(=O)c1oc2ccc(NS(=O)(=O)c3cccc(Br)c3)cc2c1C | 33.7
CCOC(=O)c1oc2ccc(NS(=O)(=O)c3ccc(Br)cc3)cc2c1C | 31.1
CCOC(=O)c1oc2ccc(NS(=O)(=O)c3cccc(C(F)(F)F)c3)cc2c1C | 30.2

Each molecule was assayed on MDA-MB-468 (assay: Antiproliferative activity against human MDA-MB-468 cells after 72 hrs under hypoxic condition by MTT assay). Details: MDA-MB-468, 72 h.
Type: functional, cell-based

SMILES | IC50 [µM]
CCOC(=O)c1oc2ccc(NS(=O)(=O)c3ccccc3[N+](=O)[O-])cc2c1C | 96.9
CCOC(=O)c1oc2ccc(NS(=O)(=O)c3cccc(C)c3)cc2c1C | 25.3
CCOC(=O)c1oc2ccc(NS(=O)(=O)c3ccccc3Cl)cc2c1C | 137
CCOC(=O)c1oc2ccc(NS(=O)(=O)c3ccc4ccccc4c3)cc2c1C | 15.7
CCOC(=O)c1oc2ccc(NS(=O)(=O)c3ccc(C(C)(C)C)cc3)cc2c1C | 8.1
CCOC(=O)c1oc2ccc(NS(=O)(=O)c3ccccc3C(F)(F)F)cc2c1C | 74.9
CCOC(=O)c1oc2ccc(NS(=O)(=O)c3cccc(Cl)c3)cc2c1C | 53.7
CCOC(=O)c1oc2ccc(NS(=O)(=O)c3ccccc3C)cc2c1C | 53.4
CCOC(=O)c1oc2ccc(NS(=O)(=O)c3cccc(Br)c3)cc2c1C | 30.7
CCOC(=O)c1oc2ccc(NS(=O)(=O)c3ccc(Br)cc3)cc2c1C | 26.4
CCOC(=O)c1oc2ccc(NS(=O)(=O)c3cccc(C(F)(F)F)c3)cc2c1C | 28.9

What follows are molecules tested on MCF7 (assay: Antiproliferative activity against human MCF7 cells after 72 hrs under hypoxic condition by MTT assay). Details: MCF7, 72 h.
Type: functional, cell-based

SMILES | IC50 [µM]
CCOC(=O)c1oc2ccc(NS(=O)(=O)c3ccccc3[N+](=O)[O-])cc2c1C | 157
CCOC(=O)c1oc2ccc(NS(=O)(=O)c3cccc(C)c3)cc2c1C | 101
CCOC(=O)c1oc2ccc(NS(=O)(=O)c3ccccc3Cl)cc2c1C | > 200
CCOC(=O)c1oc2ccc(NS(=O)(=O)c3ccc4ccccc4c3)cc2c1C | 20.8
CCOC(=O)c1oc2ccc(NS(=O)(=O)c3ccc(C(C)(C)C)cc3)cc2c1C | 22.1
CCOC(=O)c1oc2ccc(NS(=O)(=O)c3ccccc3C(F)(F)F)cc2c1C | 93.9
CCOC(=O)c1oc2ccc(NS(=O)(=O)c3cccc(Cl)c3)cc2c1C | 83.9
CCOC(=O)c1oc2ccc(NS(=O)(=O)c3ccccc3C)cc2c1C | 105
CCOC(=O)c1oc2ccc(NS(=O)(=O)c3cccc(Br)c3)cc2c1C | 57
CCOC(=O)c1oc2ccc(NS(=O)(=O)c3ccc(Br)cc3)cc2c1C | 56.5
CCOC(=O)c1oc2ccc(NS(=O)(=O)c3cccc(C(F)(F)F)c3)cc2c1C | 51.4

Each molecule was assayed against Hypoxia-inducible factor 1-alpha (Homo sapiens, UniProt Q16665) (assay: Inhibition of HIF-1alpha (unknown origin) transcriptional activity expressed in human MCF7 cells after 24 hrs under hypoxic condition by HRE luciferase reporter gene assay). Details: not given.
Hypoxia-inducible factor 1-alpha, sequence (Q16665 whole entry): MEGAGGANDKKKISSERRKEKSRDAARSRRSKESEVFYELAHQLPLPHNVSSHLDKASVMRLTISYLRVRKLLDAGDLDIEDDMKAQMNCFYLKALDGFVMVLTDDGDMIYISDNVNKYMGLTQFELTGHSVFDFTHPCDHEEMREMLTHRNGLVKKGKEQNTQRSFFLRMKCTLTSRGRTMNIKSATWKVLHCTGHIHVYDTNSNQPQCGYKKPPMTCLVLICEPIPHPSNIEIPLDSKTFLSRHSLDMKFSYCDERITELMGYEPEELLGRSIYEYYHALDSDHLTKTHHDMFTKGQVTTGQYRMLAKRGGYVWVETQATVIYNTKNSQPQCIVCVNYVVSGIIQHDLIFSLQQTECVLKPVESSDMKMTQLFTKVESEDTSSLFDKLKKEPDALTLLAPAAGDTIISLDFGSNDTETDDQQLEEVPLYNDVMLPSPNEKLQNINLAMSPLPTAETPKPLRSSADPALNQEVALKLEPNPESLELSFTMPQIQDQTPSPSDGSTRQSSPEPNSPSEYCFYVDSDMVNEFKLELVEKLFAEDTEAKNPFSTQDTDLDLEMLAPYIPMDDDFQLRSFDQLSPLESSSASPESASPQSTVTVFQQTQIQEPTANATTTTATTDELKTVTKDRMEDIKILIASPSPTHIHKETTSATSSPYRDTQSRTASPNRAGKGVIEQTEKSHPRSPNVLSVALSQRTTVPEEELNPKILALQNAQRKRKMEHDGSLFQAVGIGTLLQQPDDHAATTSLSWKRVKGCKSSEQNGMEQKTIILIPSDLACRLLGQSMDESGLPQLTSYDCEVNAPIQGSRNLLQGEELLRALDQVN
Type: cell-based

SMILES | IC50 [µM]
CCOC(=O)c1oc2ccc(NS(=O)(=O)c3ccccc3[N+](=O)[O-])cc2c1C | 24.4
CCOC(=O)c1oc2ccc(NS(=O)(=O)c3cccc(C)c3)cc2c1C | 32.7
CCOC(=O)c1oc2ccc(NS(=O)(=O)c3ccccc3Cl)cc2c1C | 20.8
CCOC(=O)c1oc2ccc(NS(=O)(=O)c3ccc4ccccc4c3)cc2c1C | 22.6
CCOC(=O)c1oc2ccc(NS(=O)(=O)c3ccc(C(C)(C)C)cc3)cc2c1C | 27.1
CCOC(=O)c1oc2ccc(NS(=O)(=O)c3ccccc3C(F)(F)F)cc2c1C | 16.5
CCOC(=O)c1oc2ccc(NS(=O)(=O)c3cccc(Cl)c3)cc2c1C | 36.6
CCOC(=O)c1oc2ccc(NS(=O)(=O)c3ccccc3C)cc2c1C | 19.4
CCOC(=O)c1oc2ccc(NS(=O)(=O)c3cccc(Br)c3)cc2c1C | 25.6
CCOC(=O)c1oc2ccc(NS(=O)(=O)c3ccc(Br)cc3)cc2c1C | 29.9
CCOC(=O)c1oc2ccc(NS(=O)(=O)c3cccc(C(F)(F)F)c3)cc2c1C | 36.3
